How the values were obtained:
Format in all cases: cell-based
[1] = tested on: MCF-7; assay: In vitro cytotoxicity assay (SRB), MCF-7; conditions: MCF7, MCF-7 (Human breast cancer), 72 hours of incubation
[2] = tested on: HCT-116; assay: In vitro cytotoxicity assay (SRB), HCT-116; conditions: HCT-116 (Human colon cancer), 72 hours of incubation
[3] = tested on: PC14PE6/AS2; assay: In vitro cytotoxicity assay (SRB), PC14PE6/AS2; conditions: PC14PE6/AS2 (Non-small cell lung cancer), 72 hours of incubation
[4] = tested on: DMS-114; assay: In vitro cytotoxicity assay (SRB), DMS-114; conditions: Homo sapiens, DMS-114 (Small cell lung cancer), 72 hours of incubation
[5] = tested on: HT-29; assay: In vitro cytotoxicity assay (SRB), HT-29; conditions: HT-29 (Human colon cancer), 72 hours of incubation

| SMILES | IC50 [1] [nM] | IC50 [2] [nM] | IC50 [3] [nM] | IC50 [4] [nM] | IC50 [5] [nM] |
| --- | --- | --- | --- | --- | --- |
| CC[C@@]1(OC(=O)[C@@H](C)O)C(=O)OCc2c1cc1n(c2=O)Cc2cc3c(CN(C)C)c(O)ccc3nc2-1 [S,R-topotecan lactate (U1), S,R-topotecan lactate] | 194 | 58 | 21 | 53 | 56 |
| CC[C@@]1(OC(=O)[C@H](C)O)C(=O)OCc2c1cc1n(c2=O)Cc2cc3c(CN(C)C)c(O)ccc3nc2-1 [S,S-topotecan lactate (U2), S,S-topotecan lactate] | 143 | 45 | 74 | 26 | 56 |

Reference: patent publication US8168648B2, “Camptothecin derivatives and uses thereof” (Taiwan Liposome Co., Ltd., priority 2009, dated 2012)
